According to patent publication US20160175457A1, “OCULAR DEVICE” (DSM IP ASSETS B.V., priority 2013, published 2016):
“Also recorded” adds a separate entry of the source. Like-named read-outs stand apart in the source and are kept apart here. No end group written: not given here.

Assays:
[1] = test system: proteinases present in tear fluid (contact lens rinsing liquid); assay: Incubation of synthetic peptides with tear fluid / contact lens rinsing liquid, cleavage followed by mass spectrometry; assay type: biochemical, human; conditions: for endoproteolytic cleavage after Arg or Val by tear fluid / proteolytic cleavage observed after incubation with tear fluid (rinsing fluid): 162 hours (FIG. 2) / 165 hours at 25 degrees C.
Procedure: (§1) Stock solutions (1 mg/ml in 5% acetonitrile) were prepared from the synthetic peptide substrates. The stock solutions are optionally 10× diluted with MilliQ water prior to incubation. Elastase (Sigma #: E7885), Tryptase (Sigma #: T7063), or tear fluid were added to the diluted substrate solutions and incubation was performed at 25° C. Aliquots of 20 μl were taken at several time points to monitor substrate degradation.
(§2) The aliquots were 10× diluted in 50% acetonitrile, 0.1% formic acid prior to analysis. Mass Spectrometric (MS) analysis was performed by infusion in the LTQ-Orbitrap Fourier Transform Mass Spectrometer (Thermo Fisher, Bremen, Germany). Infusion was performed by mixing 10 μl min^−1 of sample in a 200 μl min^−1 flow of 50% acetonitrile, 0.1% formic acid. The MS analysis was performed in the Orbitrap scanning at 7500 resolution using 200-1600 m/z mass range. Proteolytic activity during the different incubations of the synthetic peptides substrates was studied by manual inspection of the MS data using the Qual browser in the XCalibur software (Thermo Fisher, Bremen, Germany).
Contact lens wearing subjects were invited to participate at the end of their working day. Using sterilized gloves, lenses were removed and the inner surface of each lens was rinsed with 250 microliter of sterilized water. Then 100 microliter samples of the rinsing liquid were incubated overnight at 25 degrees C. with 100 μl of a 1.0 mg/ml BODIPY TR-X casein solution (EnzChek Protease Assay kit ‘Red fluorescence’; Molecular Probes, Eugene, Oreg., USA). Throughout the incubation the fluorescence of the samples was measured every minute (kinetic measurement) according to the EnzChek kit protocol (excitation=590±10 nm, emission=645±20 nm) using a Tecan Infinite M1000 microtiterplate reader (Männedorf, Switzerland).
After its purification, the peptide was incubated with contact lens rinsing liquid (cf. Example 1) of a single individual and incubated over the weekend at 25° C. Then samples of the incubation liquid were subjected to mass spectrometry to confirm cleavage. […] An incubation of the peptide with human leukocyte elastase (Sigma Aldrich) yielded GPLALL and AQ as the major cleavage products. An incubation of the peptide with human lung tryptase (also from Sigma Aldrich) yielded GPLAL/LAQ as the major cleavage products (see FIG. 1). The latter observations indicate that a peptide incorporating aliphatic hydrophobic residues like Ala and Leu support cleavage by human, tryptase- and elastase-like enzymes.
In this Example we test the cleavage activity of tear fluid on two, slightly different synthetic peptides. The first peptide comprises Arg as a charged, basic residue (Ala-Ala-Pro-Arg-Ala-Ala-Arg-Gln, AAPRAARQ (SEQ ID NO: 4)) in order to facilitate cleavage by trypsin-like endoproteases. The second peptide comprises the medium sized aliphatic hydrophobic residue Val instead of Arg (Ala-Ala-Pro-Val-Ala-Ala-Arg-Gln, AAPVAARQ (SEQ ID NO: 5)) in order to facilitate cleavage by elastase-like endoproteases. The experiment was executed essentially as described in Example 2, but in this case tear fluid of four different individuals was obtained and incubated for 165 hours at 25 degrees C. Samples of the incubation liquid were again subjected to mass spectrometry.

human lung tryptase = assay: Incubation of synthetic peptide with human lung tryptase, mass spectrometry; assay type: biochemical; conditions: 25° C., overnight (FIG. 1)
Procedure: as §1, §2
(§3) After its purification, the peptide was incubated with contact lens rinsing liquid (cf. Example 1) of a single individual and incubated over the weekend at 25° C. Then samples of the incubation liquid were subjected to mass spectrometry to confirm cleavage. […]

human leukocyte elastase = assay: Incubation of synthetic peptides with human leukocyte elastase, mass spectrometry; assay type: biochemical
Procedure: as §1, §2, §3

[2] = test system: T1, peptide Gly-Pro-Leu-Ala-Leu-Leu-Ala-Gln (GPLALLAQ)
T1 sequence: GPLALLAQ

human elastase = assay: Incubation of hyaluronic acid-peptide-HEMA conjugate with human elastase preparation, LC-MS; assay type: biochemical; conditions: 35° C., data not shown
Procedure: (§4) To cope with this experimental difficulty, we decided to focus on the identification of Peptide-HEMA fragments that can be expected to be released from the hyaluronic acid-peptide-HEMA conjugate upon exposure to a suitable proteolytic activity. On the basis of peptide hydrolysis data gathered in Examples 2 and 5, peptide Leu-Leu-Leu-Ala-Ala-Gly (LLLAAG) was synthesized and used to prepare a hyaluronic acid-peptide-HEMA conjugate (Example 6).
The conjugate (Example 6) was dissolved in 50 mM ammonium acetate buffer at 0.2 mg/ml and analyzed by 25 μl injections on the LC-MS system. The LC-MS system consisted of an Accela UHPLC (Thermo Fisher, Bremen, Germany) coupled to the LTQ-Orbitrap Fourier Transform Mass Spectrometer. The column used was a ZORBAX Rapid Resolution HT SB-C18, 2.1×50 mm, 1.8 μm (Agilent 827700-902). The autosampler was set to 35° C. for incubation of the samples and the column oven was set to 50° C. The analytes in the samples were separated using a flow of 0.8 ml min^−1 and the following gradient was used: […]
0-0.2 min 2.5% B, 0.2-2 min 2.5-30% B, 2-2.5 min 30-80% B, 2.5-3 min 80% B, 3.01-5 min 2.5% B, where buffer A is 0.1% Formic Acid in Water (Biosolve, LC-MS grade) and buffer B is 0.1% Formic Acid in Acetonitrile (Biosolve, LC-MS grade). The MS was scanning at 7500 resolution m/z 150-800. […]

[3] = test system: proteinases in contact lens rinsing liquid (tear fluid); assay: Incubation of hyaluronic acid-peptide-HEMA conjugate with lyophilized contact lens rinsing liquid, LC-MS of peptide-HEMA fragments; assay type: biochemical, human; conditions: 35 hours at 35° C., rinsing liquid of five individuals (hard and soft lenses)
Source text: as §4
Rinsing liquid was collected from 5 individuals, two wearing hard lenses and three wearing soft lenses, at the end of the working day over multiple days. The lenses were collected using sterile nitrile gloves and rinsed with 200 μl MilliQ water on a flat glass microscope slide (Thermo Scientific) containing Grace Bio-labs Press-to-Seal silicone isolator, No PSA (Sigma Aldrich GBL664504-25EA). The rinse liquid was transferred to a Protein LoBind Tube 2.0 ml (Eppendorf) using Maxymum Recovery pipette tips (Axygen scientific). The rinse liquid was frozen at −80° C. as soon as possible. Rinsing fluid was lyophilized overnight when >1.5 ml rinsing liquid was collected for each individual.
Hyaluronic acid-peptide-HEMA conjugates are too heterologous in mass to be directly detected by MS. […]
The conjugate (Example 6) was dissolved in 50 mM ammonium acetate buffer at 0.2 mg/ml and analyzed by 25 μl injections on the LC-MS system. […]

[4] = biological target: T2, hyaluronic acid-peptide-HEMA conjugate (hyaluronic acid-Leu-Leu-Leu-Ala-Ala-Gly-HEMA)
T2 chain: LLLAAG

[5] = biological target: T3, peptide Gly-Pro-Leu-Ala-Leu-Leu-Ala-Gln (GPLALLAQ)
T3 chain: GPLALLAQ

[6] = biological target: T4, peptide Leu-Leu-Leu-Ala-Ala-Gly (LLLAAG)
T4 chain: LLLAAG

## AAPRAARQ (peptide sequence cleavable by proteinases present in tear fluid) [Ala-Ala-Pro-Arg-Ala-Ala-Arg-Gln, synthetic test peptide comprising Arg as a charged, basic residue]
[1]
  endoproteolytic cleavage after Arg or Val by tear fluid: Hydrolysis of peptide bonds involving Arg (R) is not observed
  proteolytic cleavage observed after incubation with tear fluid (rinsing fluid): only showing cleavage at the N-terminal Ala

## AAPVAARQ (peptide sequence cleavable by proteinases present in tear fluid) [Ala-Ala-Pro-Val-Ala-Ala-Arg-Gln, synthetic test peptide comprising Val instead of Arg]
[1]
  endoproteolytic cleavage after Arg or Val by tear fluid: Cleavage C-terminal of Val does not occur
  proteolytic cleavage observed after incubation with tear fluid (rinsing fluid): hydrolysis of the peptide bond between Pro and Val

## GPLALLAQ (peptide sequence cleavable by proteinases present in tear fluid) [Gly-Pro-Leu-Ala-Leu-Leu-Ala-Gln, linker test peptide cleavable by tear fluid proteinases]
Human lung tryptase
  major cleavage products after incubation with human lung tryptase: GPLAL/LAQ
[1]; rinsing liquid of a single individual, over the weekend at 25° C.
  cleavage products identified after incubation with contact lens rinsing liquid (tear fluid): GPLAL and LAQ, GPL and ALLAQ and GPLA and LLAQ
Human leukocyte elastase; 25° C., 30 minutes (FIG. 1)
  major cleavage products after incubation with human leukocyte elastase: GPLALL and AQ

## LLLAAG
Human leukocyte elastase; overnight at room temperature, 50 mM ammonium acetate buffer
  conversion of intact peptide by elastase (digestion pattern): converted to fragment Leu-Leu-Leu-Ala (LLLA); also recorded: completely converted to LLLA

## human lung tryptase
[2]
  peptide cleavage products by mass spectrometry: yielded GPLAL/LAQ as the major cleavage products

## hyaluronic acid-peptide-HEMA conjugate: conjugate of hyaluronic acid with NH2-Leu-Leu-Leu-Ala-Ala-Gly hexapeptide and HEMA (hydroxyethyl methacrylate) (LLLAAG; not fully specified (N-terminus, C-terminus); printed as Leu-Leu-Leu-Ala-Ala-Gly; also: conjugate with hyaluronic acid and HEMA, attachment not given here)
Human elastase
  peptide-HEMA fragments formed upon incubation with elastase: formation of the expected AG-HEMA fragment
[3]
  peptide-HEMA fragments formed upon incubation with concentrated (lyophilized) contact lens rinsing liquid: formation of various peptide-HEMA fragments; also recorded: is able to cleave the peptide of the hyaluronic acid-peptide-HEMA conjugate; also recorded: LAAG-HEMA

B1: human leukocyte elastase (protein)
chain: IVGGRRARPHAWPFMVSLQLRGGHFCGATLIAPNFVMSAAHCVANVNVRAVRVVLGAHNLSRREPTRQVFAVQRIFENGYDPVNLLNDIVILQLNGSATINANVQVAQLPAQGRRLGNGVQCLAMGWGLLGRNRGIASVLQELNVTVVTSLCRRSNVCTLVRGRQAGVCFGDSGSPLVCNGLIHGIASFVRGGCASGLYPDAFAPVAQFVNWIDSIIQ
[4]
  peptide-HEMA fragments by LC-MS: showed the formation of the expected AG-HEMA fragment
[5]
  peptide cleavage products by mass spectrometry: yielded GPLALL and AQ as the major cleavage products
[6]
  peptide cleavage products by mass spectrometry: precursor peptide Leu-Leu-Leu-Ala-Ala-Gly (LLLAAG) was converted to fragment Leu-Leu-Leu-Ala (LLLA)
